Test results: patent US20250230193A1, “CYCLIC COMPOUND HAVING SELECTIVE KRAS INHIBITORY EFFECT ON HRAS AND NRAS” (CHUGAI SEIYAKU KABUSHIKI KAISHA, priority 2022, published 2025)
*1 amine or outer side, *2 acyl side, *3 side chain or, on linkers, in order; H or OH if unused. Where a SMILES comes first, the peptide text is derived from it. Bridges are numbered along the chain shown (N, C = ends). [ ]: non-standard residue; d: D form. The star is where a group is joined. X6 = CC(C)(C)CCN([C@@H](Cc1ccc(C(F)(F)F)cc1)C(=O)[*:2])[*:1]; hPhe(3-Cl-4-CF3) = N[C@@H](CCc1ccc(C(F)(F)F)c(Cl)c1)C(=O)O; NPrPhe(4-CF3) = CCCN[C@@H](Cc1ccc(C(F)(F)F)cc1)C(=O)O; NMeGly(cPent) = CN[C@H](C(=O)O)C1CCCC1; Hyp = O=C(O)[C@@H]1C[C@@H](O)CN1; NMeD = CN[C@@H](CC(=O)O)C(=O)O; NMeL = CN[C@@H](CC(C)C)C(=O)O; Morpholide = C1CN(*)CCO1; NMeA = CN[C@@H](C)C(=O)O; Ac5c = NC1(C(=O)O)CCCC1; Aze = O=C(O)[C@@H]1CCN1; Ac4c = NC1(C(=O)O)CCC1; Sar = CNCC(=O)O

Tests used:
[1] = target: GDP-bound NRAS wild-type protein (Homo sapiens, UniProt P01111); test: Binding to NRAS by surface plasmon resonance (SPR), Single Cycle Kinetics; details: SPR
Chain of GDP-bound NRAS wild-type protein (P01111 whole entry): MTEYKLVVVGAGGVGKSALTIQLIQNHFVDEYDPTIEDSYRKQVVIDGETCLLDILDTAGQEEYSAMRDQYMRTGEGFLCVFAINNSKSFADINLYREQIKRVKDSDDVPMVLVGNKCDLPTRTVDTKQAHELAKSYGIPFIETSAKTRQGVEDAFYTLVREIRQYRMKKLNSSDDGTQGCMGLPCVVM

[2] = target: GDP-bound HRAS wild-type protein (Homo sapiens, UniProt P01112); test: Binding to HRAS by surface plasmon resonance (SPR), Single Cycle Kinetics; details: SPR
Chain of GDP-bound HRAS wild-type protein (P01112 whole entry): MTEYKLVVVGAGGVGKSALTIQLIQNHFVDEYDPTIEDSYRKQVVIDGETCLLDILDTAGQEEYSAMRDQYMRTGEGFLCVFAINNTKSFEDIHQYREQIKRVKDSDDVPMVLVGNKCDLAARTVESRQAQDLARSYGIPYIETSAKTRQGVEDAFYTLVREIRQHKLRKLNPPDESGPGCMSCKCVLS

[3] = GDP-bound NRAS wild-type vs GDP-bound KRAS wild-type
[4] = GDP-bound HRAS wild-type vs GDP-bound KRAS wild-type
[5] = KD ratio, GDP-bound NRAS wild-type vs GDP-bound KRAS wild-type
[6] = KD ratio, GDP-bound HRAS wild-type vs GDP-bound KRAS wild-type

In the case of `CCC[C@H]1C(=O)N[C@@H]([C@@H](C)CC)C(=O)N(C2CC2)CC(=O)N(C)[C@H]2C/C=C\CCN(C2=O)[C@@H](Cc2ccc(C(F)(F)F)cc2)C(=O)N(C)CC(=O)N[C@@H](CCc2ccc(C(F)(F)F)c(OC)c2)C(=O)N2C[C@H](OCC)C[C@H]2C(=O)N(C)C2(CCC2)C(=O)N(C)[C@@H](C(CC)CC)C(=O)N(C)[C@H](C(=O)N(C)C)CC(=O)N1C` [PP2313], the “NRAS/KRAS (ratio of KD value with respect to NRAS to KD value with respect to KRAS)” value [1, 3] is reported as “AA (a compound having 20 or more is denoted as AA)” and the “HRAS/KRAS (ratio of KD value with respect to HRAS to KD value with respect to KRAS)” value [2, 4] is reported as “A (a compound having 10 or more and less than 20 is denoted as A)”.

With `C#CC[C@H]1C(=O)N[C@@H]([C@@H](C)CC)C(=O)N(C)CC(=O)N(C)[C@H]2C/C=C\CCN(C2=O)[C@@H](Cc2ccc(C(F)(F)F)cc2)C(=O)N(C)CC(=O)N[C@@H](CCc2cc(F)c(C(F)(F)F)c(F)c2)C(=O)N2C[C@H](OCC)C[C@H]2C(=O)NC2(CC(F)(F)C2)C(=O)N(C)[C@@H](C2CCCC2)C(=O)N(C)[C@H](C(=O)N(C)CCC)CC(=O)N1C` [PP1737] the “NRAS/KRAS (ratio of KD value for NRAS to KD value for KRAS)” value [1, 5] was “A (a compound having 10 or more and less than 20 is denoted as A)” and the “HRAS/KRAS (ratio of KD value for HRAS to KD value for KRAS)” value [2, 6] was “A (a compound having 10 or more and less than 20 is denoted as A)”.

In the case of `C#CC[C@H]1C(=O)N[C@@H]([C@@H](C)CC)C(=O)N(C)CC(=O)N(C)[C@H]2C/C=C\CCN(C2=O)[C@@H](Cc2ccc(C(F)(F)F)cc2)C(=O)N(C)CC(=O)N[C@@H](CCc2ccc(C(F)(F)F)c(OC)c2)C(=O)N2C[C@@H](C)C[C@H]2C(=O)NC2(CCC2)C(=O)N(C)[C@@H](C2CCCC2)C(=O)N(C)[C@H](C(=O)N(C)CC)CC(=O)N1C` [PP2061], the “NRAS/KRAS (ratio of KD value with respect to NRAS to KD value with respect to KRAS)” value [1, 3] is reported as “AA (a compound having 20 or more is denoted as AA)” and the “HRAS/KRAS (ratio of KD value with respect to HRAS to KD value with respect to KRAS)” value [2, 4] is reported as “A (a compound having 10 or more and less than 20 is denoted as A)”.

With `CCO[C@@H]1C[C@H]2C(=O)NC3(CC(C)(C)C3)C(=O)N(C)[C@@H](C(CC)CC)C(=O)N(C)[C@H](C(=O)N3CCCC3)CC(=O)N(C)[C@@H](C)C(=O)N[C@@H]([C@@H](C)CC)C(=O)N(C)CC(=O)N(C)[C@H]3C/C=C\CCN(C3=O)[C@@H](Cc3ccc(C)cc3)C(=O)N(C)CC(=O)N[C@@H](CCc3ccc(C(F)(F)F)c(OC)c3)C(=O)N2C1` [PP2169] the “NRAS/KRAS (ratio of KD value with respect to NRAS to KD value with respect to KRAS)” value [1, 3] was “AA (a compound having 20 or more is denoted as AA)” and the “HRAS/KRAS (ratio of KD value with respect to HRAS to KD value with respect to KRAS)” value [2, 4] was “A (a compound having 10 or more and less than 20 is denoted as A)”.

In the case of `CCO[C@@H]1C[C@H]2C(=O)NC3(CCC3)C(=O)N(C)[C@@H](C3CCCC3)C(=O)N(C)[C@H](C(=O)N(C)C)CC(=O)N(C)[C@@H](Cc3ccccc3F)C(=O)N[C@@H]([C@@H](C)CC)C(=O)N(C)CC(=O)N(C)[C@H]3CCCCCN(C3=O)[C@@H](Cc3ccc(C(F)(F)F)cc3)C(=O)N(C)CC(=O)N[C@@H](CCc3cc(F)c(C(F)(F)F)c(F)c3)C(=O)N2C1` [PP0934], the “NRAS/KRAS (ratio of KD value with respect to NRAS to KD value with respect to KRAS)” value [1, 5] is reported as “B (a compound having 3 or more and less than 10 is denoted as B)” and the “HRAS/KRAS (ratio of KD value with respect to HRAS to KD value with respect to KRAS)” value [2, 6] is reported as “B (a compound having 3 or more and less than 10 is denoted as B)”.

In the case of `CCCN1C(=O)CN(C)C(=O)CN(C)C(=O)[C@H]([C@@H](C)CC)NC(=O)[C@H](CC(C)C)N(C)C(=O)C[C@@H](C(=O)N2CCOCC2)N(C)C(=O)[C@H](C2CCCC2)N(C)C(=O)C2(CCC2)NC(=O)[C@@H]2C[C@@H](OCC)CN2C(=O)[C@H](CCc2ccc(C(F)(F)F)c(Cl)c2)NC(=O)CN(C)C(=O)[C@@H]1Cc1ccc(C(F)(F)F)cc1` [PP0392] ([NMeL]I[Sar][Sar][NPrPhe(4-CF3)][Sar][hPhe(3-Cl-4-CF3)][Hyp](Et)[Ac4c][NMeGly(cPent)][NMeD]-Morpholide; lactam N-11), the “NRAS/KRAS (ratio of KD for GDP-bound NRAS wild-type to KD for KRAS)” value [1] is reported as “B (a compound having 3 or more and less than 10 is denoted as B)” and the “HRAS/KRAS (ratio of KD for GDP-bound HRAS wild-type to KD for KRAS)” value [2] is reported as “C (A compound having a KD ratio of 0.1 or more and less than 3 is denoted as C)”.

With `CC[C@H](C)[C@@H]1NC(=O)[C@H](CC(C)C)N(C)C(=O)C[C@@H](C(=O)N2CCOCC2)N(C)C(=O)[C@H](C2CCCC2)N(C)C(=O)C2(CCCC2)NC(=O)[C@@H]2CCCN2C(=O)[C@H](CCc2ccc(C(F)(F)F)c(Cl)c2)NC(=O)CN(C)C(=O)[C@H](Cc2ccc(C(F)(F)F)cc2)N(CCC(C)(C)C)C(=O)[C@@H]2CCN2C(=O)[C@H](C)N(C)C1=O` [PP0113] ([NMeL]I[NMeA][Aze][X6][Sar][hPhe(3-Cl-4-CF3)]P[Ac5c][NMeGly(cPent)][NMeD]-Morpholide; lactam N-11) the “NRAS/KRAS (ratio of KD for GDP-bound NRAS wild-type to KD for KRAS)” value [1] was “C (A compound having a KD ratio of 0.1 or more and less than 3 is denoted as C)” and the “HRAS/KRAS (ratio of KD for GDP-bound HRAS wild-type to KD for KRAS)” value [2] was “B (a compound having 3 or more and less than 10 is denoted as B)”.
